According to patent publication US20130022692A1, “Expression Modulator For Clock Gene Period” (SHISEIDO COMPANY, LTD., priority 2010, published 2013):

Test system: Period1 gene
Test: Period1 gene expression in cultured human skin fibroblastic cells (RT-PCR)
Format: cell-based
Settings: for Induction of expression rhythm and increase of Period1 gene expression: peak at 2 hours after stimulation, result in words
Procedure: As the cultured human fibroblastic cells, fibroblastic cells from normal human skin were purchased (Cell Application, Inc.) and used in the experiments. They were inoculated in DMEM medium supplemented with 10% FBS, 20 mM HEPES, Glutamax and antibacterial agents and cultured at 37° C. in 5% CO2. On the 6th day of culture, 50 ng/mL of cortisol or 10 μM of forskolin was added to each wells, and the samples were harvested at various times after time 0, which was defined as the time immediately after the addition of cortisol or forskolin. RNA was extracted from the cells with a commercially available RNA extraction kit, and the amounts of expression of the intended genes were measured by RT-PCR technology using commercially available PCR primers (Perfect Real Time Primer, Takara Bio). As for clock genes, amounts of expression of Period1 and Bmal1, which are involved in the core system, were determined. Similarly, the amounts of expression of a housekeeping gene RPLP0 were quantified and used as an internal standard to calculate the relative expression of the intended genes to RPLP0. […] Test substances were evaluated for the expression modulating effect on a Period gene based on the amount of gene expression at 2 hours after stimulation. To confirm the induction of expression rhythm for the Period gene, the amount of expression of the Period1 gene at 16 hours after stimulation was also determined. Fibroblastic cells from normal human skin (Cell Application, Inc.) were inoculated according to a method similar to those used above. Each test substance was added on the 6th day of culture to a final concentration of 100 ppm, and the cells were harvested 2 and 16 hours after stimulation. […] The amounts of expression of the Period1 gene were determined by RT-PCR technology using commercially available PCR primers (Perfect Real Time Primer, Takara Bio). The amounts of gene expression of a housekeeping gene RPLP0 were quantified and used as an internal standard to calculate the relative expression of the target genes with respect to RPLP0.

Structure (SMILES)	Induction of expression rhythm and increase of Period1 gene expression	Relative amount of Period1 gene expression (2 hours) (test substance 100 ppm, 2 hours after stimulation, relative to RPLP0, control 0.23, *p < 0.05, **p < 0.01)
C=C1CC/C=C(\C)CC[C@@H]2[C@@H]1CC2(C)C [beta-Caryophyllene]	significantly increase amounts of gene expression of Period1	0.44*
C[C@]12CCC(=O)C=C1CC[C@@H]1[C@@H]2[C@@H](O)C[C@@]2(C)[C@H]1CC[C@]2(O)C(=O)CO [cortisol, reference compound]	significantly increase amounts of gene expression of Period1	
